The values below come from patent publication US10814018B2, “Isotopically labeled deoxy-glucose and derivatives thereof, compositions comprising them and uses thereof” (HADASIT MEDICAL RESEARCH SERVICE & DEVELOPMENT LTD., priority 2010, dated 2020).

Data set [1] is described as follows: T1 of glucose 13C nuclei by inversion recovery pulse sequence (Varian NMR spectrometers, 7 T and 11.8 T). It counts as physicochemical. The method, then: The effect of glucose concentration on the T1 of its carbon positions was investigated at 7 T (FIG. 1A) and at 11.8 T (FIG. 1B) using Varian NMR spectrometers (The Netherlands). [U-^13C6, ^2H7]glucose was obtained from Cambridge Isotopes Laboratories (Andover, Mass., USA). The T1 of [U-^13C6, ^2H7]glucose ^13C's was measured using the inversion recovery pulse sequence. […] The mean difference between the T1s of the two concentrations was 6.9 s (P=2*10^−6, paired t-test) at 7 T. The mean difference in T1 at 11.8 T was 4.5 s (P=4*10^−5, paired t-test). The labels C1α and C1β (FIG. 1-3) mark the two signals of the glucose carbon at position 1 in the α and β anomers. The labels Ciα and Ciβ (FIG. 1-3) mark the two signals of the glucose carbon at position i in the α and β anomers.
The effect of the magnetic field strength on the T1 of glucose carbons was investigated at 7 T (FIG. 2, solid gray columns) and at 11.8 T (FIG. 2, diagonal pattern columns). [U-^13C6, ^2H7]glucose T1 at 400 mM was measured using the inversion recovery pulse sequence in the two spectrometers. […] The mean difference in T1 between the two fields was 2 s (P=6*10^−4, paired t-test).
To increase the signal of hyperpolarized deoxy-glucose and hyperpolarized glucose, stable isotope labeling by carbon-13 in all of the carbon positions was used. The effect of direct carbon-13 to carbon-13 bonding on the individual carbon-13 T1s was investigated to study the effect of these added dipolar interactions on T1 relaxation times. To this end, two compounds were investigated (both from Cambridge Isotopes Laboratories): [U-^13C6, ^2H7]glucose (FIG. 3, solid gray columns) and [^2H7]glucose (FIG. 3, diagonal pattern columns), both at 400 mM concentration. The T1 at 11.8 T was measured using the inversion recovery pulse sequence. While both compounds are fully deuterated, in the [U-^13C6, ^2H7]glucose molecule the carbon positions are 99% occupied by ^13C nuclei. In the [^2H7]glucose molecule, only ca. 1.1% of each of the carbon positions are occupied by ^13C nuclei (due to the natural abundance distribution of ^13C). The chance for having two directly bonded ^13C nuclei in this molecule is therefore 0.01% (negligible). Therefore this measurement was indicative of the T1 of singly ^13C labeled glucose. […] Therefore, it was deducted that direct bonding of additional ^13C nuclei led to a decrease in glucose ^13C T1s, due to the additional dipolar interactions.

Data set [2] can be described thus: Hyperpolarized glucose carbon-13 images in vivo at 3 T after tail vein bolus. Further details: species or system rats. The method, then: Hyperpolarized glucose images were recorded at 3 T in vivo. As depicted in FIG. 5, hyperpolarized [U-^13C6, ^2H7]glucose provided a high signal on carbon-13 images recorded in vivo. Normal rats were anesthetized, and hyperpolarized [U-^13C6, ^2H7]glucose was injected through the tail vein in a bolus of 12 s total duration. Images were recorded at 8, 12, and 20 s from the onset of the bolus injection (i.e. during and after the bolus). […] Arterial hyperpolarized media flow at this time is not likely, as the signal in the kidneys is not yet visible. […] The signal from the injected hyperpolarized media is extremely high with no background signal. At 12 s (FIG. 5B), at the end of the bolus injection, signal intensity in the main vasculature and the heart is still high, with substantial intensity observed in the kidneys (see indicating arrows). At 20 s from bolus initiation (FIG. 5C), signal from the heart is the most intense signal in the image, about 40% higher than signal in the vasculature and 20% higher than signal in the kidneys. Still, signal in the kidneys is clearly observed, as well as signal in other tissues such as the liver (see indicating arrows and color change). The hyperpolarized glucose signal observed in the heart at 20 s from bolus start is more intense than signal in the vasculature and the kidneys. […] In the anaesthetized rat, the only tissue that is expected to actively take up glucose is the myocardium, because under anesthesia it is the only active muscle. […] It is noted that heart anatomy cannot be discerned from these hyperpolarized images since the imaging time (1 s) averaged several heart beats (approximately 6 beats). However, glucose uptake by the myocardium can be determined at short time frames of the order of 20 s using gradient de-phasing of intravoxel moving spins. Using this methodology, hyperpolarized glucose or deoxyglucose signal from capillaries are diminished, while the signal of intracellular hyperpolarized glucose or deoxyglucose are imaged and indicate the level of glucose uptake in the tissue.

For data set [3] the following is noted: rats, intravenous, cited from earlier work.
The conditions of data set [4]: value taken as a consideration in the simulation; cited from earlier work.

For the compound `[2H][13C]1(O)O[13C@]([2H])([13C]([2H])([2H])O)[13C@@]([2H])(O)[13C@]([2H])(O)[13C@@]1([2H])O` (stereo partly shown) [[U-^13C6, ^2H7]glucose], in data set [1] (400 mM, 7 T vs 11.8 T, P=6*10^-4, paired t-test), the “mean difference in T1 between the two fields (longer at 7 T)” value is listed as 2 s. The “T1 of glucose, individual values per carbon position and anomer” value in data set [1] (7 T, 400 mM) was 8 to 13 s. The “mean difference between the T1s of the two concentrations (longer at 400 mM)” value in data set [1] (7 T, 400 mM vs 4.03 M, P=2*10^-6, paired t-test) was found to be 6.9 s. Moreover, in data set [1] (11.8 T, 400 mM vs 4.03 M, P=4*10^-5, paired t-test), the “mean difference in T1 between the two concentrations (longer at 400 mM)” value amounted to 4.5 s. For the same compound, the “T1 of glucose 13Cs shorter than in [2H7]glucose (natural abundance 13C)” value in data set [1] (11.8 T, 400 mM, P=1.4x10^-3, paired t-test) was found to be 3.3 s. Also, in data set [2] (20 s from bolus initiation), the “signal from the heart higher than signal in the kidneys” value is reported as ~20% and the “signal from the heart higher than signal in the vasculature” value is listed as “about 40%”. The “signal on carbon-13 images recorded in vivo” value in data set [2] (normal anesthetized rats, tail vein bolus of 12 s) is recorded as “high signal”.

With `O=CC[C@@H](O)[C@H](O)[C@H](O)CO` [2-deoxy-D-glucose], in data set [3] (0.25, 0.5, and 1 g/Kg), the heart rate result was “no change” and the respiratory rate entry is recorded as “no change”. For the same compound, the arterial blood pressure result in data set [3] (0.25, 0.5, and 1 g/Kg, not in a dose dependent manner) is recorded as “mean decrease”. Also, the death entry in data set [3] (dose of 0.25, 0.5, and 1 g/Kg) was “No death”.

In the case of `CC(=O)C(=O)O` [pyruvate, [1-^13C]pyruvate], the T1 of pyruvate in data set [4] was 55 s.
